Measurements: patent publication US11072616B2, “Cyclic peptides targeting alpha-4-beta-7 integrin” (Zealand Pharma A/S, priority 2015, dated 2021)
One block for each molecule: values may come before it.

What was measured:
[1] = Plasma protein binding, equilibrium dialysis, rat plasma; conditions: for fraction unbound at 5 h, 1 microM: 50% plasma; for % recovery: rat plasma dialysis
[2] = Plasma protein binding, equilibrium dialysis, mouse plasma; conditions: for fraction unbound at 5 h, 1 microM: 50% plasma; for % recovery: mouse plasma dialysis
[3] = biological target: CYP2C9 (Homo sapiens, UniProt P11712); test: in vitro; conditions: microsomes
CYP2C9, sequence (P11712 whole entry): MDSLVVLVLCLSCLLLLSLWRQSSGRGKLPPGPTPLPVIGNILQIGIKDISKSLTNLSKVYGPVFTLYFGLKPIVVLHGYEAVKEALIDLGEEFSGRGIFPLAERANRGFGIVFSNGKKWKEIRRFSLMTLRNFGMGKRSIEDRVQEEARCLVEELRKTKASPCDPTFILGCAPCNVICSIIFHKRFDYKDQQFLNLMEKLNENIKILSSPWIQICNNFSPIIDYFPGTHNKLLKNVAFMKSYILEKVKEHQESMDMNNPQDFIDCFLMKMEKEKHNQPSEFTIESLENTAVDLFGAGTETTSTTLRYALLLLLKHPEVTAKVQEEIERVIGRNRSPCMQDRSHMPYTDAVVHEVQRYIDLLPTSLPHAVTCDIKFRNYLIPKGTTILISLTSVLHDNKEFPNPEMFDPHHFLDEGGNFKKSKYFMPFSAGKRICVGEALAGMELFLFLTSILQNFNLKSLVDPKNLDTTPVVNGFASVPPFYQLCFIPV
Experimental: (§1) Cytochrome P450 Inhibition Assay
(§2) Analyses were performed using standard LC/MS/MS protocols.

[4] = biological target: T1, CYP1A2 (Homo sapiens, UniProt P05177); test: in vitro; conditions: microsomes
T1 sequence (P05177 1-516): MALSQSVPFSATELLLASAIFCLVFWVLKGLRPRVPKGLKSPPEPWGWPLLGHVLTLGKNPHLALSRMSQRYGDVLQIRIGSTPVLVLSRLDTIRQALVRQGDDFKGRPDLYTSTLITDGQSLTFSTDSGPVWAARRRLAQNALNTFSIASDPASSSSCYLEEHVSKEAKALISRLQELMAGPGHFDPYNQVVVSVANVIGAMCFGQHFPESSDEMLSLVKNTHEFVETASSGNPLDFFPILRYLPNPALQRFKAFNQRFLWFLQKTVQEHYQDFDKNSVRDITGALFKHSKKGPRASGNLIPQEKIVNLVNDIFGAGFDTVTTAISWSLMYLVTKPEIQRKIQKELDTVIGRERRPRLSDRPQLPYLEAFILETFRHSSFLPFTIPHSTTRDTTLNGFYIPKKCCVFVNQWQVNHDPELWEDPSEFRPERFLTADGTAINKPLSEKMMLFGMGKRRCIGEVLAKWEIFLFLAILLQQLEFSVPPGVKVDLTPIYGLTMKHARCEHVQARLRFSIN
Experimental: as §1, §2

[5] = biological target: CYP2D6 (Homo sapiens, UniProt P10635); test: in vitro; conditions: microsomes
CYP2D6, sequence (P10635 whole entry): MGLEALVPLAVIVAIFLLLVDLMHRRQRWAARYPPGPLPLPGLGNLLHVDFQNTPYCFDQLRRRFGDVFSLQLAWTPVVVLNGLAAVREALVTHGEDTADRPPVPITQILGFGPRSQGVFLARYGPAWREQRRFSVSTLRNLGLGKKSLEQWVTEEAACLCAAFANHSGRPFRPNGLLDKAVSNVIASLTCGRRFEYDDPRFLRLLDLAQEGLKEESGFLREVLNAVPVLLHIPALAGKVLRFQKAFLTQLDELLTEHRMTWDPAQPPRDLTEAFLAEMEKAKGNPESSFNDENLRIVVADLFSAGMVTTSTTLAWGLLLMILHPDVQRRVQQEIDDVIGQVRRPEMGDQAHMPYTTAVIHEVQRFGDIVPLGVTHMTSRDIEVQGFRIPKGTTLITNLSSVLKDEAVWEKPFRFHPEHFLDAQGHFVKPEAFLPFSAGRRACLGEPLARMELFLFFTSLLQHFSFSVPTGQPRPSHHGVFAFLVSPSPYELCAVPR
Experimental: as §1, §2

[6] = biological target: CYP3A4 (Homo sapiens, UniProt P08684); test: in vitro; conditions: microsomes
CYP3A4, sequence (P08684 whole entry): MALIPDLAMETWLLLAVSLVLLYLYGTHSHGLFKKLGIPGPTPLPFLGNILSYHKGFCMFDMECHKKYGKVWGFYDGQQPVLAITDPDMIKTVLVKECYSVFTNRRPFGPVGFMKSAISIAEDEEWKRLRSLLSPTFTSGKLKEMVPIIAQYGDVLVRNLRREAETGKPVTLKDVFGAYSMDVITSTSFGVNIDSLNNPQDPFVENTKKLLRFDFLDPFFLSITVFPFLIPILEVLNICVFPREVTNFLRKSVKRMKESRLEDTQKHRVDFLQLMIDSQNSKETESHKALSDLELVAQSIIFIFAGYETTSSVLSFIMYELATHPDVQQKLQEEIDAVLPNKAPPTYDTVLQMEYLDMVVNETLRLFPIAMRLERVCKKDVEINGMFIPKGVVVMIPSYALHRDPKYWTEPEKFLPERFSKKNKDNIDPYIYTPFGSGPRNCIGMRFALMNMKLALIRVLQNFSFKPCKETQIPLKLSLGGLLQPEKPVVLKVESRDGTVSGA
Experimental: as §1, §2

[7] = not given; remark: listed apart in the source
[8] = in vivo
[9] = tested on: integrin alpha-4-beta-7-expressing T lymphocytes; test: In vivo T lymphocyte trafficking analyses in DSS-treated mice (single dose); design: species or system C57Bl/6 mice; conditions: 5-6 h
Experimental: In Vivo T Lymphocyte Trafficking Analyses
Animals. Female C57131/6 mice (Charles River, St-Constant, Qc), weighting 16-19 g at delivery were used for this study. Following arrival in the animal facility, all animals were subjected to a general health evaluation. An acclimation period of 7-14 days was allowed before the beginning of the study.
Administration of DSS. Dextran sulfate sodium (DSS) was administered to C57Bl/6 mice through addition to their drinking water at 2-3%. Mice accessed the DSS-treated water ad libitum over a 5-day period. Body weight and disease activity index (“DAI”) were measured on Day 5 in order to distribute DSS-treated animals in two uniform groups prior to dosing. Specific symptoms associated with colitis were scored based on the severity of each particular symptoms: 1—blood in stool (negative hemoccult, positive hemoccult, blood traces in stool visible, rectal bleeding); 2—stool consistency (normal, soft but still formed, very soft, diarrhea); 3—posture and fur (normal; ruffled fur; ruffled fur combined to slight hunched posture and slight dehydration; ruffled fur combined to hunched posture, dehydration and altered walking; moribund (euthanasia is mandatory before the animal reach this point). The overall DAI score was the sum of the three parameters (maximum score of 9). DAI assessment was performed on Day 5 only (prior to dosing). […]

[10] = Sprague-Dawley, rat, % unbound (Cbuffer/Cplasma) Rat plasma 1, replicate 1, 1 microM, 5 h
[11] = Sprague-Dawley, rat, % unbound (Cbuffer/Cplasma) Rat plasma 2, replicate 2, 1 microM, 5 h
[12] = Sprague-Dawley, rat, % unbound (Cbuffer/Cplasma) Rat plasma 3, replicate 3, 1 microM, 5 h
[13] = Sprague-Dawley, rat, % unbound (Cbuffer/Cplasma) Rat plasma Average, average of 3 replicates
[14] = CD-1, mouse, % unbound (Cbuffer/Cplasma) Mouse plasma 1, replicate 1, 1 microM, 5 h
[15] = CD-1, mouse, % unbound (Cbuffer/Cplasma) Mouse plasma 2, replicate 2, 1 microM, 5 h
[16] = CD-1, mouse, % unbound (Cbuffer/Cplasma) Mouse plasma 3, replicate 3, 1 microM, 5 h
[17] = CD-1, mouse, % unbound (Cbuffer/Cplasma) Mouse plasma Average, average of 3 replicates

- recovery at 5 hours, 1 microM ([1]; Sprague-Dawley, rat): 94%
- fraction unbound at 5 h, 1 microM [1, 10]: 0.833
- fraction unbound at 5 h, 1 microM [1, 11]: 0.761
- fraction unbound at 5 h, 1 microM [1, 12]: 0.702
- fraction unbound at 5 h, 1 microM [1, 13]: 0.765
- recovery at 5 hours, 1 microM ([2]; CD-1, mouse): 150%
- fraction unbound at 5 h, 1 microM [2, 14]: 0.806
- fraction unbound at 5 h, 1 microM [2, 15]: 0.744
- fraction unbound at 5 h, 1 microM [2, 16]: 0.757
- fraction unbound at 5 h, 1 microM [2, 17]: 0.769
- Control buffer/Buffer at 0.1 uM Cdonor/Creceiver [2]: 79%
- recovery at 5 hours, 0.1 uM ([2]; buffer/buffer equilibrium dialysis control (HTDialysis)): 99%
- IC50 ([3]; human): > 15 µM
- IC50 ([4]; human): > 15 µM
- IC50 ([5]; human): > 15 µM
- IC50 ([6]; human): > 15 µM
Compound: CC(C)C[C@@H]1NC(=O)[C@H](Cc2c[nH]c3ccccc23)NC(=O)[C@@H]2CCCN2[C@H](C(=O)NC(C)(C)C)[C@H](C)NC(=O)[C@H]([C@@H](C)O)NC(=O)[C@H](CC(=O)O)NC1=O [ET00762]

- % unbound (Cbuffer/Cplasma) Mouse plasma 3: 9.3%
- % unbound (Cbuffer/Cplasma) Mouse plasma Average: 9.5%
- % unbound (Cbuffer/Cplasma) Rat plasma 1 [7]: 16.2%
- % unbound (Cbuffer/Cplasma) Rat plasma 2 [7]: 17.4%
- % unbound (Cbuffer/Cplasma) Rat plasma Average [7]: 15.7%
- % recovery [1]: 143%
- Control buffer/Buffer at 0.1 uM Cdonor/Creceiver [2]: 86%
- % recovery [2]: 103%
Compound: CC[C@H](C)[C@@H]1NC(=O)[C@H](CC(=O)O)NC(=O)[C@H](CC(C)C)NC(=O)[C@H](Cc2ccc3ccccc3c2)NC(=O)[C@@H]2CCCN2[C@H](C(=O)NC(C)(C)C)[C@H](C)NC1=O [ET01827]

Continued, molecule first:

Compound: CC(C)C[C@@H]1NC(=O)[C@H](Cc2ccccc2)NC(=O)[C@@H]2CCCN2[C@H](C(=O)NC(C)(C)C)[C@H](C)NC(=O)[C@H]([C@@H](C)O)NC(=O)[C@H](CC(=O)O)NC1=O [ET01792]
- % unbound (Cbuffer/Cplasma) Mouse plasma 1: 64.8%
- % unbound (Cbuffer/Cplasma) Mouse plasma 2: 52.9%
- % unbound (Cbuffer/Cplasma) Mouse plasma 3: 67.9%
- % unbound (Cbuffer/Cplasma) Mouse plasma Average: 61.9%
- % unbound (Cbuffer/Cplasma) Rat plasma 1 [7]: 82.9%
- % unbound (Cbuffer/Cplasma) Rat plasma 2 [7]: 77.3%
- % unbound (Cbuffer/Cplasma) Rat plasma 3 [7]: 79.5%
- % unbound (Cbuffer/Cplasma) Rat plasma Average [7]: 79.9%
- oral bioavailability / absorption (in words) ([8]; mouse, po): high oral bioavailability
- exposure (AUC0-tlast) ([8]; mouse, po, 40 mg/kg): 589 ng·h/mL
- maximum plasma concentration after the first dose ([8]; mouse, po, 48 mg/kg): ~1,600 ng/ml
- % recovery [1]: 97%
- homing of T lymphocytes to the MLN ([9]; 100 mg/kg single oral dose): significant reduction of homing to the MLN
- Control buffer/Buffer at 0.1 uM Cdonor/Creceiver [2]: 80%
- % recovery [2]: 130%
- IC50 [3]: > 15 µM
- IC50 [4]: > 15 µM
- IC50 [5]: > 15 µM
- IC50 [6]: > 15 µM

Compound: Clc1ccc(COC(Cn2ccnc2)c2ccc(Cl)cc2Cl)c(Cl)c1 (stereo not drawn) [Miconazole, reference compound]
- IC50 ([3]; human): 0.32 µM

Compound: CC[C@H](C)[C@@H]1NC(=O)[C@H](CCO)NC(=O)[C@H](CC(C)C)NC(=O)[C@H](Cc2ccc3ccccc3c2)NC(=O)[C@@H]2CCCN2[C@H](C(=O)NC(C)(C)C)[C@H](C)NC1=O [ET01842-01]
- IC50 ([3]; human): > 15 µM
- IC50 ([4]; human): > 15 µM
- IC50 ([5]; human): > 15 µM
- IC50 ([6]; human): 0.89 µM

Compound: CC(C)C[C@@H]1NC(=O)CN(C)C(=O)[C@H](Cc2ccc(O)cc2)NC(=O)[C@@H]2CCCN2[C@H](C(=O)NC(C)(C)C)[C@H](C)NC(=O)[C@H]([C@@H](C)O)NC(=O)[C@H](CC(=O)O)NC1=O [ET2154]
- oral bioavailability / absorption (in words) ([8]; mouse, po): low oral bioavailability
- homing of T lymphocytes to the MLN ([9]; 200 mg/kg single oral dose): significant and robust attenuation of homing to the MLN

Compound: CC(C)C[C@H]1C(=O)N[C@@H](C(C)C)C(=O)N[C@@H](Cc2ccccc2)C(=O)N[C@@H](C)[C@@H](C(=O)NC(C)(C)C)N2CCC[C@H]2C(=O)N[C@@H]([C@@H](C)O)C(=O)N1C [ET00328-01]
- IC50 ([3]; human): > 15 µM
- IC50 ([4]; human): > 15 µM
- IC50 ([5]; human): > 15 µM
- IC50 ([6]; human): 9.7 µM

Compound: CC(C)C[C@@H]1NC(=O)[C@H](Cc2ccc(-c3ccccc3)cc2)NC(=O)[C@@H]2CCCN2[C@H](C(=O)NC(C)(C)C)[C@H](C)NC(=O)[C@H]([C@@H](C)O)NC(=O)[C@H](CC(=O)O)NC1=O [ET01813]
- % unbound (Cbuffer/Cplasma) Mouse plasma 1: 24.7%
- % unbound (Cbuffer/Cplasma) Mouse plasma 2: 22.2%
- % unbound (Cbuffer/Cplasma) Mouse plasma 3: 18.8%
- % unbound (Cbuffer/Cplasma) Mouse plasma Average: 21.9%
- % unbound (Cbuffer/Cplasma) Rat plasma 1 [7]: 15.8%
- % unbound (Cbuffer/Cplasma) Rat plasma 2 [7]: 20.1%
- % unbound (Cbuffer/Cplasma) Rat plasma 3 [7]: 21.7%
- % unbound (Cbuffer/Cplasma) Rat plasma Average [7]: 19.2%
- CLs ([8]; male, CD-1, mouse, iv, 5 mg/kg): 114.8 mL/min/kg
- calculated oral bioavailability ([8]; mouse): ~1%
- terminal half-life ([8]; mouse): ~2 h
- tmax ([8]; mouse, po, 40 mg/kg): 5 min
- % recovery [1]: 89%
- Control buffer/Buffer at 0.1 uM Cdonor/Creceiver [2]: 94%
- IC50 [3]: > 15 µM
- IC50 [4]: > 15 µM
- IC50 [5]: > 15 µM
- IC50 [6]: > 15 µM

Compound: CC(C)NCC(O)COc1cccc2ccccc12 (stereo not drawn) [Propranolol, reference compound]
- recovery at 5 h, 1 microM ([1]; Sprague-Dawley, rat, 50% plasma (K2EDTA)): 79%
- fraction unbound at 5 h, 1 microM [1, 10]: 0.146
- fraction unbound at 5 h, 1 microM [1, 11]: 0.147
- fraction unbound at 5 h, 1 microM [1, 12]: 0.147
- fraction unbound at 5 h, 1 microM [1, 13]: 0.147
- fraction unbound at 5 h, 1 microM ([1]; Sprague-Dawley, rat, free fraction (% unbound), rat plasma): ~0.15
- recovery at 5 h, 1 microM ([2]; CD-1, mouse, 50% plasma (K2EDTA)): 93%
- fraction unbound at 5 h, 1 microM [2, 14]: 0.229
- fraction unbound at 5 h, 1 microM [2, 15]: 0.201
- fraction unbound at 5 h, 1 microM [2, 16]: 0.201
- fraction unbound at 5 h, 1 microM [2, 17]: 0.21
- fraction unbound at 5 h, 1 microM ([2]; CD-1, mouse, free fraction (% unbound), mouse plasma): ~0.21
